Assay results from PubChem BioAssay AID1963964 (Molecular Pharmacology Branch, DTP, NCI, 2024).

System: 997726-040-R-J2-PDC tumor spheroids, viability
Assay: Anticancer human tumor 997726-040-R-J2-PDC patient-derived squamous cell lung carcinoma cell line growth inhibition [PI3K]
Settings: spheroids with HUVEC and MSC; for IC50: curve of first compound; for viability, T/C: stronger effect = lower value
How it was run: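 High-throughput combination screen: PI3K inhibitors crossed with targeted small molecules on complex spheroids of tumor cells, HUVEC and MSCs at 37 degrees C, 5% CO2. Top concentration was at or near clinical Cmax (otherwise 10 microM), with half-log decrements.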

[1] = second compound 0.0316 µM, first compound 0.0316 µM
[2] = second compound 0.0316 µM, first compound 0.1 µM
[3] = second compound 0.0316 µM, first compound 0.316 µM
[4] = second compound 0.0316 µM, first compound 1 µM
[5] = second compound 0.0316 µM, first compound 3.16 µM
[6] = second compound 0.0316 µM, first compound 10 µM
[7] = second compound 0.1 µM, first compound 0.0316 µM
[8] = second compound 0.1 µM, first compound 0.1 µM
[9] = second compound 0.1 µM, first compound 0.316 µM
[10] = second compound 0.1 µM, first compound 1 µM
[11] = second compound 0.1 µM, first compound 3.16 µM
[12] = second compound 0.1 µM, first compound 10 µM
[13] = second compound 0.316 µM, first compound 0.0316 µM
[14] = second compound 0.316 µM, first compound 0.1 µM
[15] = second compound 0.316 µM, first compound 0.316 µM
[16] = second compound 0.316 µM, first compound 1 µM
[17] = second compound 0.316 µM, first compound 3.16 µM
[18] = second compound 0.316 µM, first compound 10 µM
[19] = second compound 1 µM, first compound 0.0316 µM
[20] = second compound 1 µM, first compound 0.1 µM
[21] = second compound 1 µM, first compound 0.316 µM
[22] = second compound 1 µM, first compound 1 µM
[23] = second compound 1 µM, first compound 3.16 µM
[24] = second compound 1 µM, first compound 10 µM
[25] = second compound 3.16 µM, first compound 0.0316 µM
[26] = second compound 3.16 µM, first compound 0.1 µM
[27] = second compound 3.16 µM, first compound 0.316 µM
[28] = second compound 3.16 µM, first compound 1 µM
[29] = second compound 3.16 µM, first compound 3.16 µM
[30] = second compound 3.16 µM, first compound 10 µM
[31] = second compound 10 µM, first compound 0.0316 µM
[32] = second compound 10 µM, first compound 0.1 µM
[33] = second compound 10 µM, first compound 0.316 µM
[34] = second compound 10 µM, first compound 1 µM
[35] = second compound 10 µM, first compound 3.16 µM
[36] = second compound 10 µM, first compound 10 µM
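Note: spheroids exposed to compounds for seven days before readout.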

`CC(C)NCC(C(=O)N1CCN(c2ncnc3c2C(C)CC3O)CC1)c1ccc(Cl)cc1` (centres undefined) + CC(Nc1ncnc2nc[nH]c12)c1cc2cccc(Cl)c2c(=O)n1-c1ccccc1 showed an IC50 (second compound 0.0316 µM) of 388 nM, an IC50 (second compound 0.1 µM) of 400 nM and an IC50 (second compound 0.316 µM) of 398 nM. For the same molecule, the IC50 (second compound 1 µM) was 297 nM, the IC50 (second compound 3.16 µM) was 278 nM and the IC50 (second compound 10 µM) was 55.6 nM. The viability, T/C [1] was 82.7%, the viability, T/C [2] was 74.3% and the viability, T/C [3] was 54.4%. The viability, T/C [4] was 29.7%, the viability, T/C [5] was 14.6% and the viability, T/C [6] was 10.8%. It also gave a viability, T/C [7] of 79.5%, a viability, T/C [8] of 85.4% and a viability, T/C [9] of 50.1%. The viability, T/C [10] was 31.6%, the viability, T/C [11] was 12.7% and the viability, T/C [12] was 10.7%. For the same molecule, the viability, T/C [13] was 87.1%, the viability, T/C [14] was 87.3% and the viability, T/C [15] was 53.1%. The viability, T/C [16] was 27.4%, the viability, T/C [17] was 15.5% and the viability, T/C [18] was 9.73%. It also gave a viability, T/C [19] of 88.9%, a viability, T/C [20] of 69.2% and a viability, T/C [21] of 48.7%. For the same molecule, the viability, T/C [22] was 32%, the viability, T/C [23] was 15% and the viability, T/C [24] was 9.4%. The viability, T/C [25] was 80.1%, the viability, T/C [26] was 69.6% and the viability, T/C [27] was 46.3%. For the same molecule, the viability, T/C [28] was 28.3%, the viability, T/C [29] was 15.3% and the viability, T/C [30] was 10.8%. It also gave a viability, T/C [31] of 54.7%, a viability, T/C [32] of 42.8% and a viability, T/C [33] of 41.8%. For the same molecule, the viability, T/C [34] was 27.3%, the viability, T/C [35] was 13.7% and the viability, T/C [36] was 9.38%.
In the case of `CC1(C)CCC(CN2CCN(c3ccc(C(=O)NS(=O)(=O)c4ccc(NCC5CCOCC5)c([N+](=O)[O-])c4)c(Oc4cnc5[nH]ccc5c4)c3)CC2)=C(c2ccc(Cl)cc2)C1` + CC(Nc1ncnc2nc[nH]c12)c1cc2cccc(Cl)c2c(=O)n1-c1ccccc1, the IC50 (second compound 0.0316 µM) is reported as > 10000 nM, the IC50 (second compound 0.1 µM) is reported as 9870 nM and the IC50 (second compound 0.316 µM) is reported as 9360 nM. For the same molecule, the IC50 (second compound 1 µM) was > 10000 nM, the IC50 (second compound 3.16 µM) was 6260 nM and the IC50 (second compound 10 µM) was 3370 nM. It also gave a viability, T/C [1] of 101%, a viability, T/C [2] of 87.9% and a viability, T/C [3] of 93.4%. For the same molecule, the viability, T/C [4] was 102%, the viability, T/C [5] was 104% and the viability, T/C [6] was 52.2%. For the same molecule, the viability, T/C [7] was 102%, the viability, T/C [8] was 94% and the viability, T/C [9] was 109%. It also gave a viability, T/C [10] of 105%, a viability, T/C [11] of 98.6% and a viability, T/C [12] of 49.4%. It also gave a viability, T/C [13] of 97.1%, a viability, T/C [14] of 95.4% and a viability, T/C [15] of 103%. It also gave a viability, T/C [16] of 93.5%, a viability, T/C [17] of 91.7% and a viability, T/C [18] of 47.2%. For the same molecule, the viability, T/C [19] was 94.3%, the viability, T/C [20] was 85.7% and the viability, T/C [21] was 92%. It also gave a viability, T/C [22] of 80.6%, a viability, T/C [23] of 89.9% and a viability, T/C [24] of 51%. For the same molecule, the viability, T/C [25] was 73.1%, the viability, T/C [26] was 74.5% and the viability, T/C [27] was 73%. The viability, T/C [28] was 72.4%, the viability, T/C [29] was 71.9% and the viability, T/C [30] was 35.1%. It also gave a viability, T/C [31] of 55.7%, a viability, T/C [32] of 56.4% and a viability, T/C [33] of 48.3%. It also gave a viability, T/C [34] of 53.8%, a viability, T/C [35] of 51.2% and a viability, T/C [36] of 29.4%.
